pIC50: −log10 of the molar value.
Test system: WT Mtb Erdman strain
Experiment: Microplate Alamar Blue Assay (MABA), Mtb growth inhibition
Format: cell-based, Mycobacterium tuberculosis
Details: Mycobacterium tuberculosis, ERDMAN, 168 h, Middlebrook 7H9 media, 7 days at 37° C. in 5% CO2

Row | Structure (SMILES) | pIC50
1 | c1ccc(CCCNc2nc(N3CCOCC3)nc3sccc23)cc1 [Example 504, 2-morpholino-N-(3-phenylpropyl)thieno[2,3-d]pyrimidin-4-amine] | < 5.00
2 | c1ccc(CCCNc2nc(NC3CC3)nc3sccc23)cc1 [Example 505, N2-cyclopropyl-N4-(3-phenylpropyl)thieno[2,3-d]pyrimidine-2,4-diamine] | 5.04
3 | Cc1cc2c(NCCCc3ccc(OC(F)(F)F)cc3)nc(N3CCCC3)nc2s1 [Example 506, 6-methyl-2-(pyrrolidin-1-yl)-N-(3-(4-(trifluoromethoxy)phenyl)propyl)thieno[2,3-d]pyrimidin-4-amine] | 6.92
4 | Cc1cc2c(NCCCc3ccccc3)nc(N3CCSCC3)nc2s1 [Example 507, 6-methyl-N-(3-phenylpropyl)-2-thiomorpholinothieno[2,3-d]pyrimidin-4-amine] | < 5.00
5 | Cc1cc2c(NCCCc3ccccc3)nc(N3CCN(C)CC3)nc2s1 [Example 508, 6-methyl-2-(4-methylpiperazin-1-yl)-N-(3-phenylpropyl)thieno[2,3-d]pyrimidin-4-amine] | < 5.00
6 | Cc1cc2c(NCCCc3ccccc3)nc(N3CCC3)nc2s1 [Example 510, 2-(azetidin-1-yl)-6-methyl-N-(3-phenylpropyl)thieno[2,3-d]pyrimidin-4-amine] | 6.96
7 | Cc1cc2c(NCCCc3ccccc3)nc(N3CC(F)(F)C3)nc2s1 [Example 511, 2-(3,3-difluoroazetidin-1-yl)-6-methyl-N-(3-phenylpropyl)thieno[2,3-d]pyrimidin-4-amine] | 6.24
8 | Cc1cc2c(NCCCc3ccccc3)nc(N3CC(F)C3)nc2s1 [Example 512, 2-(3-fluoroazetidin-1-yl)-6-methyl-N-(3-phenylpropyl)thieno[2,3-d]pyrimidin-4-amine] | 6.21
9 | Cc1cc2c(NCCCc3ccccc3)nc(N3CCC(F)(F)C3)nc2s1 [Example 513, 2-(3,3-difluoropyrrolidin-1-yl)-6-methyl-N-(3-phenylpropyl)thieno[2,3-d]pyrimidin-4-amine] | 6.64
10 | Cc1cc2c(NCCCc3ccccc3)nc(N3CCC[C@H]3C)nc2s1 [Example 514, (R)-6-methyl-2-(2-methylpyrrolidin-1-yl)-N-(3-phenylpropyl)thieno[2,3-d]pyrimidin-4-amine] | 5.15
11 | Cc1cc2c(NCCCc3ccccc3)nc(N3CCC(F)(F)CC3)nc2s1 [Example 515, 2-(4,4-difluoropiperidin-1-yl)-6-methyl-N-(3-phenylpropyl)thieno[2,3-d]pyrimidin-4-amine] | < 5.00
12 | Cc1cc2c(NCCCc3ccccc3)nc(N3CCCC3)nc2s1 [Example 516, 6-methyl-N-(3-phenylpropyl)-2-(pyrrolidin-1-yl)thieno[2,3-d]pyrimidin-4-amine] | 6.96
13 | Cc1cc2c(NCCCc3ccccc3)nc(N3CCCCC3)nc2s1 [Example 517, 6-methyl-N-(3-phenylpropyl)-2-(piperidin-1-yl)thieno[2,3-d]pyrimidin-4-amine] | 5.51
14 | COC1CN(c2nc(NCCCc3ccccc3)c3cc(C)sc3n2)C1 [Example 518, 2-(3-methoxyazetidin-1-yl)-6-methyl-N-(3-phenylpropyl)thieno[2,3-d]pyrimidin-4-amine] | 5.72
15 | Cc1cc2c(NCCCc3ccccc3)nc(N3CCSC3)nc2s1 [Example 519, 6-methyl-N-(3-phenylpropyl)-2-(thiazolidin-3-yl)thieno[2,3-d]pyrimidin-4-amine] | 6.05
16 | CCN(CC)c1nc(NCCCc2ccccc2)c2cc(C)sc2n1 [Example 520, N2,N2-diethyl-6-methyl-N4-(3-phenylpropyl)thieno[2,3-d]pyrimidine-2,4-diamine] | < 5.00
17 | CNc1nc(NCCCc2ccccc2)c2cc(C)sc2n1 [Example 521, N2,6-dimethyl-N4-(3-phenylpropyl)thieno[2,3-d]pyrimidine-2,4-diamine] | 6.60
18 | Cc1cc2c(NCCCc3ccccc3)nc(NC3CC3)nc2s1 [Example 522, N2-cyclopropyl-6-methyl-N4-(3-phenylpropyl)thieno[2,3-d]pyrimidine-2,4-diamine] | 5.38
19 | Cc1cc2c(N[C@@H]3C[C@H]3c3ccc(F)c(F)c3)nc(N3CCC(F)(F)C3)nc2s1 [Example 523, N-((1R,2S)-2-(3,4-difluorophenyl)cyclopropyl)-2-(3,3-difluoropyrrolidin-1-yl)-6-methylthieno[2,3-d]pyrimidin-4-amine] | 5.35
20 | Cc1cc2c(N[C@@H]3C[C@H]3c3ccc(F)c(F)c3)nc(N3CC(F)(F)C3)nc2s1 [Example 524, 2-(3,3-difluoroazetidin-1-yl)-N-((1R,2S)-2-(3,4-difluorophenyl)cyclopropyl)-6-methylthieno[2,3-d]pyrimidin-4-amine] | < 5.00
21 | CNc1nc(N[C@@H]2C[C@H]2c2ccc(F)c(F)c2)c2cc(C)sc2n1 [Example 525, N4-((1R,2S)-2-(3,4-difluorophenyl)cyclopropyl)-N2,6-dimethylthieno[2,3-d]pyrimidine-2,4-diamine] | 5.32
22 | Cc1cc2c(N[C@@H]3C[C@H]3c3ccc(F)c(F)c3)nc(NC3COC3)nc2s1 [Example 526, N4-((1R,2S)-2-(3,4-difluorophenyl)cyclopropyl)-6-methyl-N2-(oxetan-3-yl)thieno[2,3-d]pyrimidine-2,4-diamine] | < 5.00
23 | Cc1cc2c(N[C@@H]3C[C@H]3c3ccc(F)c(F)c3)nc(N)nc2s1 [Example 527, N4-((1R,2S)-2-(3,4-difluorophenyl)cyclopropyl)-6-methylthieno[2,3-d]pyrimidine-2,4-diamine] | < 5.00
24 | Cc1cc2c(NCCCc3ccc(-c4ccc(OC(F)(F)F)cc4)cc3)nc(N3CCCC3)nc2s1 [Example 528, 6-methyl-2-(pyrrolidin-1-yl)-N-(3-(4′-(trifluoromethoxy)-[1,1′-biphenyl]-4-yl)propyl)thieno[2,3-d]pyrimidin-4-amine] | 7.74
25 | Cc1cc2c(NCCCc3ccccc3)nc(NCc3ccco3)nc2s1 [Example 529, N2-(furan-2-ylmethyl)-6-methyl-N4-(3-phenylpropyl)thieno[2,3-d]pyrimidine-2,4-diamine] | < 5.00
26 | Cc1cc2c(NCCCc3ccc(-c4ccc(Cl)cc4)cc3)nc(N(C)C)nc2s1 [Example 531, N4-(3-(4′-chloro-[1,1′-biphenyl]-4-yl)propyl)-N2,N2,6-trimethylthieno[2,3-d]pyrimidine-2,4-diamine] | 7.92
27 | CNc1nc(NCCCc2ccc(-c3ccc(OC(F)(F)F)cc3)cc2)c2cc(C)sc2n1 [Example 532, N2,6-dimethyl-N4-(3-(4′-(trifluoromethoxy)-[1,1′-biphenyl]-4-yl)propyl)thieno[2,3-d]pyrimidine-2,4-diamine] | 7.31
28 | Cc1cc2c(NCCCc3ccc(-c4ccc(OC(F)(F)F)cc4)cc3)nc(N3CCC3)nc2s1 [Example 533, 2-(azetidin-1-yl)-6-methyl-N-(3-(4′-(trifluoromethoxy)-[1,1′-biphenyl]-4-yl)propyl)thieno[2,3-d]pyrimidin-4-amine] | 6.03
29 | Cc1cc2c(NCCCc3ccc(-c4ccc(OC(F)(F)F)cc4)cc3)nc(N3CCC(F)(F)C3)nc2s1 [Example 534, 2-(3,3-difluoropyrrolidin-1-yl)-6-methyl-N-(3-(4′-(trifluoromethoxy)-[1,1′-biphenyl]-4-yl)propyl)thieno[2,3-d]pyrimidin-4-amine] | 7.07
